One assay deals with T1, β2AR-T4L (Homo sapiens, UniProt P07550, DEL231-262, form not given).
T1 construct: The β2AR and β2AR-T4L (both truncated at position 365) purified as previously described (Rosenbaum et al. 2007); fused on or other part: T4 lysozyme (in the cited construct residues 2-161, C54T/C97A) inserted in place of the third intracellular loop as a crystallisation aid
In words: [3H]-DHA saturation binding on β2AR-T4L reconstituted in HDL particles. The conditions noted are these: read-out: [3H]-DHA saturation binding Kd ± S.E. Here is the method:
(§1) The effect of Nb80 and Gs on the receptors affinity for agonists was compared in competition binding experiments. The β2AR and β2AR-[…] (both […]) purified as previously described (Rosenbaum et al. 2007; […] GTPγS was used at 10 μM. […] Bound ^3H-DHA was separated from unbound on a Brandel harvester by passing over a Whatman GF/B filter (presoaked in TBS with 0.3% polyethylenimine) and washed in cold TBS. Radioligand binding was measured in a Beckman LS6000 scintillation counter. Ligand binding affinity (Kd) of DHA was determined from saturation binding curves using GraphPad Prism software.

Assay [1] deals with T2, β2AR (Homo sapiens, UniProt P07550). In words: [3H]-DHA saturation binding on β2AR reconstituted in HDL particles. Further details: recombinant β2AR truncated at Gly365 (β2AR-365); made in house; host or cells: Sf9 insect cells (membranes). As to conditions: read-out: [3H]-DHA saturation binding Kd ± S.E. Here is the method:
as §1

The target in assay [2] is T2, β2AR. In words: Competition radioligand binding on commercial insect cell membranes with full-length human β2AR, Nb80 versus irrelevant Nb.
Setting [3] is: 500 nM Nb80 or irrelevant Nb, 2 nM 3H-DHA radioligand.

Counter-ions that a name gives are not always drawn. Like-named read-outs stand apart in the source and are kept apart here.

Regarding `CCCc1ccccc1OCC(O)CNC(C)C` (stereo not shown) [[^3H]-DNA, [^3H]-dihydroalprenolol], the values for the Kd on β2AR-T4L and on β2AR [1] were 420 ± 10 pM and 550 ± 90 pM, respectively.

For the compound `CC(CCc1ccc(O)cc1)NCCc1ccc(O)c(O)c1` (stereo not shown) [dobutamine, dobutamine hydrochloride], the “Potency shift (ratio of IC50 with irrelevant Nb to IC50 with Nb80)” value on β2AR [2] (setting [3]) was 2.3.

With `CC(Cc1ccc(O)cc1)NCC(O)c1cc(O)cc(O)c1` (stereo not shown) [fenoterol, fenoterol hydrobromide], the “Potency shift (ratio of IC50 with irrelevant Nb to IC50 with Nb80)” value on β2AR [2] (setting [3]) is recorded as 3.7.

As for `CCC(NC(C)C)C(O)c1ccc(O)c2[nH]c(=O)ccc12` (stereo not shown) [procaterol, procaterol hydrochloride], at β2AR [2] (setting [3]), the “Potency shift (ratio of IC50 with irrelevant Nb to IC50 with Nb80)” value stood at 2.3.

Take `CC(NCCc1ccc(O)cc1)C(O)c1ccc(O)cc1` (stereo not shown) [ritodrine, ritodrine hydrochloride]: at β2AR [2] (setting [3]), the “Potency shift (ratio of IC50 with irrelevant Nb to IC50 with Nb80)” value is on record as 2.7.

metaproterenol hemisulfate salt: the “Potency shift (ratio of IC50 with irrelevant Nb to IC50 with Nb80)” value on β2AR [2] stood at 2.9.

Values taken from US20130137856A1, “PROTEIN BINDING DOMAINS STABILIZING FUNCTIONAL CONFORMATIONAL STATES OF GPCRS AND USES THEREOF” (priority 2010, published 2013).
